Data published in patent US20220326125A1, “BIOLOGICAL TISSUE STAINING REAGENT, BIOLOGICAL TISSUE STAINING KIT AND BIOLOGICAL TISSUE STAINING METHOD” (CUBICStars, Inc., priority 2019, published 2022).

Assays:
[1] = test system: defatted column of the cerebral cortex area of pig brain; experiment: Evaluation of antibody penetration efficiency (peak-bottom ratio), anti-synaptophysin antibody; details: 2.5% by weight in Immunostaining Buffer E vs distilled water, 32° C., 1 day
Description: After the defatting treatment, the sample was washed with PBS, and soaked in Immunostaining Buffer E that was mixed with a mouse monoclonal anti-synaptophysin antibody (manufactured by Medical & Biological Laboratories Co., Ltd.; #D073-3; 20 μg/mL) and Fab-anti-mouse IgG1 labeled with Alexa 594 (added such that the weight ratio to the anti-synaptophysin antibody was about 1:1) and further supplemented with 2.5% by weight Quadrol or the same amount of distilled water. The sample was stained at 32° C. for 1 day. After the staining, the sample was washed with PB-Triton and PB, and a frozen section in the central portion of the sample was prepared.
FIGS. 18A and B show images of the frozen sections of the samples stained with Immunostaining Buffer E to which distilled water or Quadrol, respectively, was added. […] For quantification, a representative area showing almost uniform staining of the left and right sides of the column was selected using a micrographic image, and a brightness-value graph was prepared. In the graph, the ratio (peak-bottom ratio) of the maximum brightness (peak) in the left and right to the minimum brightness (bottom) in the sample was high in the sample to which Quadrol was not added. […] Thus, using the peak-bottom ratio as a quantitative index of penetrability of an antibody into a tissue, a search was carried out for compounds as follows. […]

[2] = test system: defatted mouse cerebral hemisphere; experiment: 3D immunostaining with combinations of additives; details: Immunostaining Buffer E; antibodies against synaptophysin, Gad67, Dat or Th; 32° C., 3 to 4 days
From the text: Fab-anti-mouse or rabbit IgG against each primary antibody, labeled with Alexa 594 (manufactured by Jackson ImmunoResearch laboratories; Fab-anti-mouse IgG1-[…] (#115-587-185), Fab-anti-mouse IgG2a-[…] (#115-587-186), or Fab-anti-rabbit IgG-[…] (#111-587-008), added such that the weight ratio to each primary antibody was about 1:0.75); and predetermined concentrations of additives (two or three selected from #0854, #1086, and #0609 described in FIG. 1A and #0146 described in FIG. 1B).

Row | Compound | penetration of the antibody [1] | penetration-promoting effect for the antibodies / staining performance inside the sample [2]
1 | CC(O)CN(CCN(CC(C)O)CC(C)O)CC(C)O (centres unmarked) [Quadrol, N,N,N′,N′-tetrakis(2-hydroxypropyl)ethylenediamine] | penetration of the antibody was effectively increased | –
2 | CN(C)CCOCCO [#0146, 2-[2-(Dimethylamino)ethoxy]ethanol] | – | even stronger penetration-promoting effect
